Results taken from the NIST ThermoML archive (doi:10.1016/j.fluid.2014.09.007).
Numbers after ± are expanded uncertainties.

Legend:
[1] = Molar enthalpy of transition or fusion; conditions: Crystal; DSC
[2] = Crystal
[3] = Solid-liquid equilibrium temperature; conditions: Crystal, visual observation

CCCCCCCCCCCC(=O)OCC [ethyl dodecanoate]
Molar enthalpy of transition or fusion [1]: 9.18 ± 0.311 kcal/mol | Normal melting temperature ([2]; DTA): -0.9 ± 0.5 °C | Normal melting temperature ([2]; visual observation): -0.8 ± 0.5 °C | Solid-liquid equilibrium temperature ([3]; 100 kPa): 272.3 ± 0.4 K | Solid-liquid equilibrium temperature ([3]; 20000 kPa): 276.4 ± 0.5 K | Solid-liquid equilibrium temperature ([3]; 40000 kPa): 280.3 ± 0.5 K | Solid-liquid equilibrium temperature ([3]; 60000 kPa): 284 ± 0.5 K | Solid-liquid equilibrium temperature ([3]; 80000 kPa): 287.4 ± 0.5 K

CCCCCCCCCCCCCCCC(=O)OCC [ethyl hexadecanoate]
Molar enthalpy of transition or fusion [1]: 13.3 ± 0.359 kcal/mol | Normal melting temperature ([2]; DTA): 24.2 ± 0.5 °C | Normal melting temperature ([2]; visual observation): 24.5 ± 0.5 °C | Solid-liquid equilibrium temperature ([3]; 100 kPa): 297.6 ± 0.4 K | Solid-liquid equilibrium temperature ([3]; 20000 kPa): 302 ± 0.5 K | Solid-liquid equilibrium temperature ([3]; 40000 kPa): 306.4 ± 0.5 K | Solid-liquid equilibrium temperature ([3]; 60000 kPa): 310.3 ± 0.5 K | Solid-liquid equilibrium temperature ([3]; 80000 kPa): 314.3 ± 0.5 K

CCCCCCCCCCCCCC(=O)OCC [ethyl tetradecanoate]
Molar enthalpy of transition or fusion [1]: 11.3 ± 0.335 kcal/mol | Normal melting temperature ([2]; DTA): 13.2 ± 0.5 °C | Normal melting temperature ([2]; visual observation): 12.7 ± 0.5 °C | Solid-liquid equilibrium temperature ([3]; 100 kPa): 285.8 ± 0.4 K | Solid-liquid equilibrium temperature ([3]; 20000 kPa): 289.9 ± 0.5 K | Solid-liquid equilibrium temperature ([3]; 40000 kPa): 294.1 ± 0.5 K | Solid-liquid equilibrium temperature ([3]; 60000 kPa): 298 ± 0.5 K | Solid-liquid equilibrium temperature ([3]; 80000 kPa): 301.9 ± 0.5 K
